Experimental data reported in ChEMBL document CHEMBL1144228, “Isoxazolo[3,4-b]quinoline-3,4(1H,9H)-diones as unique, potent and selective inhibitors for Pim-1 and Pim-2 kinases: chemistry, biological activities, and molecular modeling” (Bioorg Med Chem Lett, 2008).
pKi: −log10 of the molar value.

Assays:
[1] = target: Serine/threonine-protein kinase pim-1 (Homo sapiens, UniProt P11309); assay: Inhibition of Pim1
[2] = target: Serine/threonine-protein kinase pim-2 (Homo sapiens, UniProt Q9P1W9); assay: Inhibition of Pim2
[3] = Inhibition of Casein kinase 2
[4] = Inhibition of Aurora1
[5] = target: T1, 5'-AMP-activated protein kinase subunit beta-1 (Homo sapiens, UniProt Q9Y478); assay: Inhibition of AMPK
T1 sequence (Q9Y478 whole entry): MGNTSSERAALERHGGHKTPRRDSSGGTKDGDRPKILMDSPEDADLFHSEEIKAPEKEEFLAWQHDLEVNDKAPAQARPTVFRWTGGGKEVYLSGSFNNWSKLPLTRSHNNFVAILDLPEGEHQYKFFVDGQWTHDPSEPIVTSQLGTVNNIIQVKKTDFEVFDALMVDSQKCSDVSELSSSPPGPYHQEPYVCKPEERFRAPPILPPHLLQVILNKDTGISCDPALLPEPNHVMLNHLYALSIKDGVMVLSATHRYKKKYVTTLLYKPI

[6] = target: Serine/threonine-protein kinase MARK1 (Homo sapiens, UniProt Q9P0L2); assay: Inhibition of MARK
[7] = Inhibition of PKA
[8] = Inhibition of Aurora2
[9] = target: T2, Protein kinase C iota type (Homo sapiens, UniProt P41743); assay: Inhibition of PKCiota
T2 sequence (P41743 whole entry): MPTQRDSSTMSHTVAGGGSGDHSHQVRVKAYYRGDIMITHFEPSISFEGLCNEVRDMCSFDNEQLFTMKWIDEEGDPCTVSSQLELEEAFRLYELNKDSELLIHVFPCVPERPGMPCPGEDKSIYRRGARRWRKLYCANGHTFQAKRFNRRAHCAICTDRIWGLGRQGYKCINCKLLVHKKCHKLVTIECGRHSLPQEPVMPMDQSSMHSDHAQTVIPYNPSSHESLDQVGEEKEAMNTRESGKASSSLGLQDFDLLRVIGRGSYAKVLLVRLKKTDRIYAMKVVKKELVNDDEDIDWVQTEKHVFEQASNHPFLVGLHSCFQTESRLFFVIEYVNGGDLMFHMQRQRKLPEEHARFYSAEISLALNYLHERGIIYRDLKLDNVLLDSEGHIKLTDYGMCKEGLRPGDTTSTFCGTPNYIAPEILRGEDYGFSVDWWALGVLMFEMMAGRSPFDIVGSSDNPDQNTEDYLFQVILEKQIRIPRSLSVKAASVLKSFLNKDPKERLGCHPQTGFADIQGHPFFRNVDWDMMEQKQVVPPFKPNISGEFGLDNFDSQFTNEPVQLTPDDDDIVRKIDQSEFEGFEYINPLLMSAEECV

Chain of Serine/threonine-protein kinase pim-2 (Q9P1W9 whole entry): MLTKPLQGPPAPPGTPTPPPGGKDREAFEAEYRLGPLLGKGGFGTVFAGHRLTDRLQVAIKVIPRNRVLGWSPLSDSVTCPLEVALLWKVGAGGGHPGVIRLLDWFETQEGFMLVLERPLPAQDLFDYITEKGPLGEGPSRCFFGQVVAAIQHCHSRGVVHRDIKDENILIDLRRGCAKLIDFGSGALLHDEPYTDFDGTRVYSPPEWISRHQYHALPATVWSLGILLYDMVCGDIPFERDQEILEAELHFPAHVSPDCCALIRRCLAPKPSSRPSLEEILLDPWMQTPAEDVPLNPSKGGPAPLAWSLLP
Chain of Serine/threonine-protein kinase pim-1 (P11309 whole entry): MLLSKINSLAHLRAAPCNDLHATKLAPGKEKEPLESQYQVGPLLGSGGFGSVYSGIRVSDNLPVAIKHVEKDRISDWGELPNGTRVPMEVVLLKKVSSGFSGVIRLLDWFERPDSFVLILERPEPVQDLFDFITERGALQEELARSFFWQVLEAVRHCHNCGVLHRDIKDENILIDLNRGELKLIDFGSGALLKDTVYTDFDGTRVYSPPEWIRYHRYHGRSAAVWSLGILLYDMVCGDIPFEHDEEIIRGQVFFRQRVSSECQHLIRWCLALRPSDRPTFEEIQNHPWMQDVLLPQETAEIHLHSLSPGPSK
Chain of Serine/threonine-protein kinase MARK1 (Q9P0L2 whole entry): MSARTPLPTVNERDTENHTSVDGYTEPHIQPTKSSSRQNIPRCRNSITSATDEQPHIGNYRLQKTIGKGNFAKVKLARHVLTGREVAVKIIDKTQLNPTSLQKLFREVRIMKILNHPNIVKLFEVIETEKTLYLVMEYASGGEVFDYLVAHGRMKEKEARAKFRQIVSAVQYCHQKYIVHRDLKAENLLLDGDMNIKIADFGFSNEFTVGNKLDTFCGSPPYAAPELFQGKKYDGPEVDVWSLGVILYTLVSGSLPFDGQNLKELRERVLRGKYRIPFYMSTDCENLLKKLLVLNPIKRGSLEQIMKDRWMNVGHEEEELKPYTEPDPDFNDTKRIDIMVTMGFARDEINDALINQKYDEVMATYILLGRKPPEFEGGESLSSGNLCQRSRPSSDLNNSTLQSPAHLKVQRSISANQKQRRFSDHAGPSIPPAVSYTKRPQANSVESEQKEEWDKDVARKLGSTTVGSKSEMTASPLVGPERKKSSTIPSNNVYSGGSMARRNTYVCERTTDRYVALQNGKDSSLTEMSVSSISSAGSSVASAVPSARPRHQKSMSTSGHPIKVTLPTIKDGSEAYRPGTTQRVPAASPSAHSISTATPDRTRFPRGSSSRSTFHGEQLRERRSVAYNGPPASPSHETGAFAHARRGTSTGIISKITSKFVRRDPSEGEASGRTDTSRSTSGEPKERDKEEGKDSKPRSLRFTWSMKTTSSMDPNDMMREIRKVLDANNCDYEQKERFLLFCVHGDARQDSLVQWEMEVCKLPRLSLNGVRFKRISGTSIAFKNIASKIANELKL

Question: With `CCn1c2cc(Cl)c(F)cc2c(=O)c2c(=O)on(CCO)c21` as the molecule, how does the pKi [1] read?
Answer: Its pKi is 5.93.

Question: What about the pKi [2] of the same molecule?
Answer: The pKi was under 5.85.

Question: With `CCn1c2cc(Cl)c(OC)cc2c(=O)c2c(=O)o[nH]c21` as the molecule, how does the pKi [1] read?
Answer: Its pKi is 5.57.

Question: What about the pKi [2] of the same molecule?
Answer: Its pKi is under 5.85.

Question: Which results are given for `CCn1c2cc(Cl)c(O)cc2c(=O)c2c(=O)o[nH]c21`?
Answer: pKi [3]: 5.97; pKi [4]: < 5.16; pKi [5]: 5.76; pKi [6]: < 5.07; pKi [7]: < 5.12; pKi [2]: 7.36; pKi [8]: < 5.18; pKi [9]: < 5.08

Question: With `O=c1o[nH]c2c1c(=O)c1cc(F)c(Cl)cc1n2Cc1ccccc1` as the molecule, how does the pKi [1] read?
Answer: The pKi was 7.44.

Question: And the pKi [2]?
Answer: Its pKi is 6.25.

Question: With `CCn1c2cc(Cl)c(F)cc2c(=O)c2c(=O)on(CCOCc3ccccc3)c21` as the molecule, how does the pKi [1] read?
Answer: The pKi was 5.31.

Question: What about the pKi [2] of the same molecule?
Answer: Its pKi is under 5.85.

Question: What does the source list for `CCCCn1c2cc(Cl)c(F)cc2c(=O)c2c(=O)o[nH]c21`?
Answer: pKi [1]: 7.82; pKi [2]: 6.78

Question: With `CCn1c2cc(Cl)c(F)cc2c(=O)c2c(=O)on(Cc3cccc(O)c3)c21` as the molecule, how does the pKi [1] read?
Answer: Its pKi is 6.57.

Question: And the pKi [2]?
Answer: Its pKi is under 5.85.

Question: With `CCn1c2cc(Cl)c(F)cc2c(=O)c2c(=O)on(Cc3ccccc3)c21` as the molecule, how does the pKi [1] read?
Answer: Its pKi is 5.90.

Question: What about the pKi [2] of the same molecule?
Answer: The pKi was under 5.85.

Question: Which results are given for `CC(C)n1c2cc(Cl)c(F)cc2c(=O)c2c(=O)o[nH]c21`?
Answer: pKi [1]: 7.91; pKi [2]: 7.20
